What was measured:
Shaker IR = test: Two-electrode voltage clamp, Shaker IR; assay type: cell-based, Drosophila melanogaster; conditions: control toxin, 2.5 μM; Xenopus laevis oocytes, ND96, two-electrode voltage clamp
[1] = test system: vertebrate and invertebrate cells; conditions: component of Apis mellifera venom; cited from earlier work
Excerpt: Ant venom peptides have previously been classified based on their structure into three main groups: linear, dimeric or inhibitor cystine knot (ICK)-like peptides [for a review, see [2]]. An alternative approach for classification follows their biological activity, with two main characteristics: cytolytic or neurotoxic. […] Such a phenomenon is indicative of cytolysis or cytotoxicity and may be explained by pore formation. […] In non-injected control oocytes, the current ...

[2] = test system: voltage-gated sodium (Nav) channels; conditions: vertebrates and invertebrates; blocks synaptic transmission in insect CNS; cited from earlier work
Excerpt: Ant venom peptides have previously been classified based on their structure into three main groups: linear, dimeric or inhibitor cystine knot (ICK)-like peptides [for a review, see [2]]. An alternative approach for classification follows their biological activity, with two main characteristics: cytolytic or neurotoxic. […] They often act as amphipathic, helical structures forming pores through biological membranes, disturbing t ...

Q: For charybdotoxin, which “block of Shaker IR currents” value (Shaker IR) is on record?
A: The value was “clear block”.

Q: With melittin as the substance, how does the “cytolysis via pore formation” value [1] read?
A: Its value is “cytolysis via a process of pore formation”.

Q: With poneratoxin as the substance, how does the “modulation of Nav channels” value [2] read?
A: The value was “modulate voltage-gated sodium (Nav) channels of both vertebrates and invertebrates”.
